Entries after “also recorded” stand apart in the source; their conditions may differ.
Assays:
Format in all cases: cell-based, human
TIL586 [1] = experiment: GM-CSF release by TIL586 co-incubated with peptide-pulsed target cells; set-up: GM-CSF release: unit not given here; settings: for GM-CSF release: 586EBV cells pulsed with peptide 1 μg/ml for 90 min, co-incubated with TIL586, TIL586 alone subtracted; for Recognition by TIL586 / stimulation of GM-CSF release (in words): peptide pulsed onto 586EBV B cells (A31+)
Method: Transfection and cytokine assays were performed as FIG. 1A and b. 586mel and 397mel were included as positive and negative controls for the reactivity of TIL586. The ORF3P peptide was incubated with 586EBV (A31+) and T2 (non-A31) cells at a concentration of 1 μg/ml for 90 min.
The following chemicals and reagents were purchased from the sources indicated: RPMI 1640, AIM-V media, Lipofectamine, G418 (GIBCO BRL, Gaithersberg, Md.); the eukaryotic expression vector pCR3 (Invitrogen, San Diego, […] containing 120 IU/ml of IL-2. TIL586 was added and incubated for additional 18–24 h, 100 μl of supernatant was collected for GM-CSF assay.

TIL586 [2] = experiment: Cytotoxic lysis of peptide-pulsed target cells by TIL586, 4-h chromium release assay; settings: for % Specific lysis (E:T 20:1): 586EBV cells pulsed with peptide 1 μg/ml, TIL586 E:T 20:1, 4-h chromium release; for Sensitization of peptide-pulsed 586EBV B cells for lysis by TIL586 (in words): peptide pulsed onto 586EBV B cells
Method: 586EBV B cells were incubated with ORF3P (pep) (—▴—), with an irrelevant peptide (ipep) (—●—) without peptide (—Δ—) and T2 cells pulsed with ORF3P (—∘—) as marked. After incubation, TIL586 was added and mixed with the target cells. Cytolytic activity of TIL586 was measured in a 4 h chromium release assay.
586EBV cells were separately incubated with serial dilutions of ORF3P (pep) (—▴—) or irrelevant peptides (ipep) (—●—) and T2 cells with the ORF3P (peptide (—∘—) for 90 min. The cytolytic activity of TIL586 was evaluated in a 4h […] release assay at an effector: target (E:T) ratio of 40:1.
(§1) Cytolytic assays was done as previously described (Kawakami, Y et al., 1994, Proc. Natl. Acad. Sci. USA 91:6458–62). Briefly, the target cells were labeled with chromium for 90 min. After washing three times, the cells were incubated with peptides at a concentration of 1 μg/ml for 90 min. The cells were washed again, counted, and then mixed with TIL586 at the indicated ratio of effector : targets (E:T). Chromium release was measured after 4 h incubation. The peptides were synthesized by a solid-phase method using a peptide synthesizer (Model AMS 422, Gibson Co., Inc., Worthington, Ohio). Some peptides were purified by HPLC and had greater than 98% in purity. For titration of the ORF3P peptide recognized by TIL586, 586EBV B cells were incubated with various concentrations of the purified ORF3P peptide. Percentage of specific lysis was determined from the equation (A-B)/(C-B)×100 where A is lysis of 586EBV B cells by TIL586 in the presence of a peptide, B is spontaneous release from 586EBV B cells in presence of the same peptide but in the absence of effector cells, and C is the maximum chromium release.

TIL586 [3] = experiment: GM-CSF release by TIL586 co-incubated with peptide-pulsed target cells
[4] = test system: T cell clones from TIL586; experiment: GM-CSF release by T cell clones generated from the TIL586 cell line; settings: six T cell clones, GM-CSF assay, 18–24 h
Method: FIGS. 6A–6D show recognition of the antigenic peptide T cell clones from the TIL586 cell line. T cell clones were generated from the TIL586 cell line. 586EBV B cells were pulsed with the ORF3P peptide or irrelevant peptide. T cell clone or TIL586 cells were added and coincubated. For 586 mel, 397 mel/A31^+ tumors and melanocyte NHEM680 cells, 1×10^5 cells per well were incubated with 1×10^5 cells clones, TIL586-C1 (FIG. 6A), TIL586-C4 (FIG. 6B) and TIL586-C6 (FIG. 6C) or TIL586 (FIG. 6D) for 18–24 h, respectively. GM-CSF assay was performed as described in FIG. 1B.
To address the question of whether TIL586 recognized a naturally processed peptide which is similar or identical to the ORF3P peptide on the tumor cells, the ability of the ORF3P peptide pulsed 586EBV B cells to inhibit lysis of ^51Cr-labeled 586mel in a cold-target inhibition assay was examined. […] To further test if T cell clones can recognize both the ORF3P peptide pulsed 586EBV B cells and tumor cell lines, T cell clones were generated from the TIL586 cell line by limiting dilution (1 cell/well in 96-well round bottom microplate) and further expanded in culture. […] T cell clones were further expanded in AIM-V medium containing 6000 IU/ml IL-2. […]

TIL586 [5] = experiment: Cold target inhibition of lysis of 51Cr-labeled 586mel by TIL586; settings: TIL586, E:T 20:1, 4 h
Method: 586EBV cells pulsed with ORF3P (—▴—), with irrelevant peptide (—Δ—) and T2 cells loaded with ORF3P (—□—) were used as “cold” target cells. After washing, “hot” and “cold” target cells were counted again and mixed at the “cold”/“hot” ratio of 1:1, 5:1, 10:1, and 20:1. TIL586 was added at an effector; “hot” target (E:T) ratio of 20:1. Chromium release was measured after 4 h incubation.
as §1, with “For titration of the ORF3P peptide recognized by TIL586, 586EBV B cells were incubated with various concentrations of the purified ORF3P peptide.” left out, “release. […]” for “release.”

TIL1200 = experiment: Cold target inhibition of lysis of 51Cr-labeled 624mel by TIL1200; settings: TIL1200 (gp100, HLA-A2), E:T 30:1, 4 h
Method: “Cold” and “hot” target cells were mixed at the indicated ratios. TIL1200 was added at an effector: hot target (E:T) ratio of 30:1. Cytolytic activity of TIL1200 was evaluated in a 4-h ^51Cr release assay.
as §1, with “release. […]” for “release.”

[6] = 586EBV cells, TIL586 E:T 40:1, 4 h

Sequence | GM-CSF release (TIL586 [1]) | % Specific lysis (E:T 20:1) (TIL586 [2]) [%] | Recognition by TIL586 / stimulation of GM-CSF release (in words) (TIL586 [1]) | further results
ACDQRVLIVRR (listed as Homo sapiens) [synthetic peptide from ORF1 (gp75)] | <50 | <10 |  | 
MRLQRQFLR (listed as Homo sapiens) [modified ORF3P, anchor residue substitution] |  |  | did not recognize | 
MSLQRQFLE (listed as Homo sapiens) [modified ORF3P, anchor residue substitution] |  |  | did not recognize | 
CGTCRPGWR (listed as Homo sapiens) [synthetic peptide from ORF1 (gp75)] | <50 | <10 |  | 
AISQDTTVGR (listed as Homo sapiens) [synthetic peptide from ORF1 (gp75)] | <50 | <10 |  | 
VWPLRFFNR (listed as Homo sapiens) [synthetic peptide from ORF1 (gp75)] | <50 | <10 |  | 
MSLQRQFLRT (listed as Homo sapiens) [peptide from ORF3] |  |  | did not recognize | 
LWDVPSWLER (listed as Homo sapiens) | <50 | <10 |  | 
IVRRNLLDLSK (listed as Homo sapiens) [synthetic peptide from ORF1 (gp75)] | <50 | <10 |  | 
MSLQRLFLR (listed as Homo sapiens) [modified ORF3P, anchor residue substitution] |  |  | did not recognize | 
SLQRQFLRT (listed as Homo sapiens) [peptide from ORF3] |  |  | did not recognize | 
AACDQRVLIVR (listed as Homo sapiens) [synthetic peptide from ORF1 (gp75)] | 250 | <10 | very weakly induced GM-CSF release | Peptide concentration needed for weak stimulation of cytokine release from TIL586 (TIL586 [3]; incubated with 586EBV B cells): > 1 µg/mL; Sensitization of target cells for lysis by TIL586 at high peptide concentration (TIL586 [2]; 10 μg/ml of peptide, data not shown): did not sensitize the target cells for lysis; Sensitization of peptide-pulsed 586EBV B cells for lysis by TIL586 (in words) (TIL586 [2]): failed to sensitive peptide-loaded 586EBV B for lysis by TIL586
MSLQRQFLK (listed as Homo sapiens) [modified ORF3P, anchor residue substitution] |  |  | did not recognize | 
LSKEEKNHFVR (listed as Homo sapiens) [synthetic peptide from ORF1 (gp75)] | <50 | <10 |  | 
MALQRQFLR (listed as Homo sapiens) [modified ORF3P, substitution Ser with Ala at position 2] |  |  | recognized | 
MLLQRQFLR (listed as Homo sapiens) [modified ORF3P, anchor residue substitution] |  |  | did not recognize | 
SGHNCGTCR (listed as Homo sapiens) [synthetic peptide from ORF1 (gp75)] | <50 | <10 |  | 
DQRVLIVRR (listed as Homo sapiens) [synthetic peptide from ORF1 (gp75)] | <50 | <10 |  | 
MSLQRQFLR (listed as Homo sapiens) [ORF3P, antigenic nonamer peptide derived from ORF3 of the gp75 (TRP-1) gene] |  |  | strongly recognized by TIL586; also recorded: significantly increased | Recognition of peptide-pulsed 586EBV B cells by T cell clones from TIL586 [4]: capable of recognizing; also recorded: recognized by six T cell clones derived from TIL586; Recognition by TIL586 / GM-CSF release, peptide on T2 cells (TIL586 [1]; peptide loaded onto T2 (non-HLA-A31) cells): not when peptide was loaded onto T2 (non-HLA-A31) cells; Recognition by TIL586 / GM-CSF release, peptide on 1510EBV cells (TIL586 [3]; peptide pulsed onto allogeneic 1510EBV B (A31+) cells): observed only when the peptide was pulsed onto autologous 586EBV B cells and 1510EBV B (A31+) cells; also recorded: significantly increased; Inhibition of lysis of 51Cr-labeled 586mel by cold peptide-pulsed 586EBV B cells (TIL586 [5]): Significant inhibition; Peptide concentration at which lytic activity was still detected (TIL586 [2]; [6]): 1 nM; Peptide concentration giving maximal sensitization for lysis (TIL586 [2]; [6]): 100 nM; Lysis by TIL586 of T2 cells pulsed with peptide (TIL586 [2]; T2 (non-A31) cells pulsed with peptide): failed to lyse; Sensitization of peptide-pulsed 586EBV B cells for lysis by TIL586 (in words) (TIL586 [2]): lysed; Inhibition of lysis of 51Cr-labeled 624mel by cold peptide-pulsed 586EBV B cells (TIL1200): did not inhibit
ISLQRQFLR (listed as Homo sapiens) |  |  | still recognized by TIL586 at comparable concentrations to that of the wild-type peptide | 
DDREVWPLR (listed as Homo sapiens) [synthetic peptide from ORF1 (gp75)] | <50 | <10 |  | 
ACDQRVLIVR (listed as Homo sapiens) [synthetic peptide from ORF1 (gp75)] | <50 | <10 |  | 

Source: patent US7015312B1, “Antibodies to the protein product encoded by ORF3 of the TRP-1 gene and compositions and kits thereof” (The United States of America as represented by the …, priority 1996, dated 2006)
